The values below come from PubChem BioAssay (NCI).

What all share (experiment): NCI tumour cell line growth inhibition, 48 h
Assay [1] has as its system IGROV1 ovarian.
Assay [2] has as its system NCI-H460 lung.
The test system of assay [3] is SK-OV-3 ovarian.
In assay [4] the test system is HS 578T breast.
For assay [5], the system named is HCC-2998 colon.
Assay [6] concerns A549 NSCLC.
In assay [7] the test system is NCI/ADR-RES ovarian.
Assay [8] has as its system HCT-15 colon.
The test system of assay [9] is UACC-257 melanoma.
The test system of assay [10] is K-562 leukemia.
For assay [11], the system named is EKVX NSCLC.
In assay [12] the test system is CCRF-CEM leukemia.
The subject of assay [13] is HOP-92 NSCLC.
For assay [14], the system named is CAKI-1 renal.
Assay [15] concerns MDA-MB-231 breast.
Assay [16] has as its system SF-539 CNS.
For assay [17], the system named is BT-549 breast.

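Five compound concentrations were applied to cells in 96-well plates for 48 hours; endpoints were derived by simple linear interpolation of the resulting dose-response curve. TGI: concentration producing complete growth inhibition.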

As to `O=C1Cc2c(-c3cccs3)cc(-c3ccccc3)nc2-c2ccccc2N1`, the TGI is 71.5 µM in assay [1]; more than 100 µM in [2]; more than 100 µM in [3]; 17.2 µM in [4]; more than 100 µM in assay [5]; more than 100 µM in assay [6]. The TGI in assay [7], in assay [8], in assay [9], in assay [10], in assay [11] and in assay [12] was more than 100 µM each time. Further, the TGI in [13], in assay [14], in [15], in assay [16] and in assay [17] was more than 100 µM throughout.

Consider `CCCc1nnc2sc(COc3ccc(OCc4nn5c(CCC)nnc5s4)c(Cl)c3)nn12`, for which the TGI in assay [1] was more than 100 µM; in assay [2] it was 78.1 µM; in assay [3] it was more than 100 µM; in assay [4], more than 100 µM; in [5], 64.1 µM; in [6] it was more than 100 µM. For the same compound, the TGI in assay [7] was more than 100 µM; in assay [8], more than 100 µM; in assay [9] it was 51.1 µM; in [10], more than 100 µM; in [11], 48.1 µM; in assay [13], 80.6 µM. For the same compound, the TGI was 60 µM in [14], more than 100 µM in assay [15], more than 100 µM in [16] and more than 100 µM in [17].

As to `Brc1ccc(C2=NCSC(c3ccc(Br)cc3)=N2)cc1`, the TGI is more than 100 µM in assay [1]; 53.8 µM in [2]; more than 100 µM in assay [3]; more than 100 µM in assay [4]; 51 µM in [5]; more than 100 µM in [6]. For the same compound, the TGI in [7] was more than 100 µM; in assay [8], more than 100 µM; in assay [9], 71 µM; in assay [10], more than 100 µM; in assay [11], 38.5 µM; in assay [13], more than 100 µM. Besides, the TGI in [14] is more than 100 µM; in assay [15], more than 100 µM; in assay [16], 99.2 µM; in [17] it was more than 100 µM.

As for `C=CCN1C(=O)CC2[C@@H]3CCc4cc(O)ccc4C3CC[C@]2(C)C1=O` (stereo not given in full), the TGI in assay [1], in [2], in [3], in [4], in assay [5] and in assay [6] was more than 10 µM throughout. Further, the TGI in assay [7], in [8], in assay [9], in assay [10], in [11] and in assay [12] was more than 10 µM each time. Besides, the TGI in assay [13], in assay [14], in assay [15], in assay [16] and in assay [17] was more than 10 µM throughout.

In the case of `COc1cc2nc3n(c2cc1OC)C(O)c1c(Cl)nc(SC)nc1S3` (stereo not given), the TGI is 13 µM in assay [1]; 19.6 µM in [2]; 30.8 µM in assay [3]; more than 100 µM in assay [4]; 20.2 µM in assay [5]; 48 µM in assay [6]. Besides, the TGI in [7] is 18.7 µM; in assay [8], 12.3 µM; in assay [9], 52.5 µM; in assay [10] it was more than 100 µM; in assay [11], 40.6 µM; in assay [12], 3.91 µM. Besides, the TGI was 68.3 µM in assay [13]; more than 45.4 µM in assay [14]; more than 81 µM in [15]; 5.22 µM in assay [16]; 9.37 µM in assay [17].

Regarding `O=C1C2C3C4C1C1C2[C@H](OCc2ccccc2)C3C1[C@H]4OCc1ccccc1` (stereo not given in full), the TGI in assay [1] was more than 100 µM; in assay [2], more than 100 µM; in [3], more than 100 µM; in assay [4], 60.4 µM; in [5], more than 100 µM; in [6] it was more than 100 µM. The TGI is 54.8 µM in [7]; 57.9 µM in assay [8]; more than 100 µM in assay [9]; more than 100 µM in [10]; 89.1 µM in [11]; more than 100 µM in assay [12]. The TGI in [13] was 66.3 µM; in assay [14] it was more than 100 µM; in assay [15], more than 100 µM; in assay [16], more than 100 µM; in [17], more than 100 µM.

Turning to `Clc1ccc(Cc2nc3ccccc3o2)cc1`, the TGI in assay [1], in [2], in assay [3], in [4], in [5] and in assay [6] was more than 100 µM in each case. Besides, the TGI in assay [7], in assay [8], in assay [9], in assay [10], in assay [11] and in assay [12] was more than 100 µM throughout. Also, the TGI in assay [13], in assay [14], in [15], in [16] and in assay [17] was more than 100 µM throughout.

With `Fc1ccc(Nc2nc(Cl)c3[nH]cnc3n2)cc1Cl`, the TGI in assay [1], in assay [2], in assay [3], in assay [4], in assay [5] and in assay [6] was more than 100 µM in each case. Also, the TGI in assay [7], in assay [8], in assay [9], in assay [11], in assay [12] and in assay [13] was more than 100 µM throughout. The TGI in assay [14], in assay [15], in assay [16] and in [17] was more than 100 µM throughout.

As for `Cc1ccc(-c2n[nH]c(=O)n2/N=C\c2ccccc2O)cc1`, the TGI in assay [1], in assay [2], in assay [3], in [4], in assay [5] and in [6] was more than 100 µM throughout. The TGI in assay [7], in assay [8], in assay [9], in assay [10], in [11] and in [12] was more than 100 µM in each case. The TGI in [13], in assay [14], in assay [15], in [16] and in [17] was more than 100 µM each time.
